# From patent publication US20230218714A1, “DIAGNOSTICS AND USE OF QUORUM SENSING MOLECULES IN MUSCLE WASTING” (Universiteit Gent, priority 2019, published 2023)
# “Also recorded” adds a separate entry of the source. Where no end group is shown, it is not given here.
# Assays:
# [1] = system: C2C12 myoblasts; assay: MTT cell viability assay in C2C12 myoblasts; conditions: for Effect: viability (hit direction): screening at 1 μM, hit selection by MAD/quartile/SSMD/robust SSMD
# Protocol: The mouse myoblast C2C12 cell line (ATCC, CRL-1772) was cultured at 37° C. in a 5% CO2 humidified incubator in Dulbecco's modified Eagle medium (DMEM; Thermo Fisher Scientific). For C2C12 cell proliferation, the medium was supplemented with 10% fetal bovine serum (FBS; Thermo Fisher Scientific), 100 units/ml penicillin, and 100 μg/ml streptomycin (1% Pen/Strep; Thermo Fisher Scientific). The proliferation medium was renewed each 2-3 days and confluency was kept below 80%. For differentiation of the C2C12 myoblasts into myotubes, proliferation medium was replaced by differentiation medium when cells reached 80% confluency.
# Viability of QSM was assessed using the 3-(4,5-dimethylthiazol-2-yl)-2,5-diphenyltetrazolium bromide (MTT) assay. Briefly, C2C12 myoblasts were seeded in a 96-well plate (3×10^4 cells/well). 24 hours post-seeding, the wells were treated with QSM (1 μM), placebo or positive control (DMSO 2%) and incubated for 24 hours at 37° C. Next, 20 μL of MTT reagent (5 mg/mL; Sigma-Aldrich) was added to each well and the plates were returned to the incubator for 2.5 hours. After incubation, supernatant was removed from the wells and 150 μL of DMSO was added to release and dissolve the formazan crystals. Absorbance was measured at 570 nm using a microplate reader (Thermo Fisher).
# The MTT assay is a widely validated and accepted viability assay for screening experiments. In this assay, the reduction of MTT into formazan, catalysed by living cell enzymes, is used as a marker of cell viability. If QSM are cytotoxic or cytostatic towards C2C12 cells, a decrease in MTT reduction is expected (viability less than 100%), while an increased C2C12 proliferation caused by QSM will result in an increased MTT reduction (viability more than 100%).
# In a further set of experiments, the dose response effect of QSPs Q22 and Q184 was assessed on MTT reduction of C2C12 myotubes (tables 7.4 and 7.5).
# [2] = system: C2C12 myoblasts; assay: Differentiation of C2C12 myoblasts into myotubes (LADD stain, ImageJ); format: cell-based, mouse; conditions: for differentiation capacity relative to the median of all samples: QSM 1 μM at d0 and d3, myotube formation at d6; for Effect: differentiation (hit direction): screening at 1 μM, myotube formation
# Protocol: Differentiation medium consisted of DMEM supplemented with 2% horse serum (HS; Thermo Fisher Scientific) and 1% Pen/Strep. All experiments were done with C2C12 passage numbers below 30.
# C2C12 myoblasts (1×10^4 cells/well) were seeded in 48-well plates and incubated until they reached 80% confluency, after which the proliferation medium was removed and replaced by differentiation medium (d0). The differentiation medium was renewed at d3. QSM (1 μM), placebo or positive controls (vitamin D3) were added to the cells together with the differentiation medium at d0 and d3. After 6 days of incubation (d6), myotubes were stained with the combined nuclear and cytoplasmatic LADD Multiple Stain (as described in R. McColl, M. Nkosi, C. Snyman, C. Niesler, Analysis and quantification of in vitro myoblast fusion using the LADD Multiple Stain, Biotechniques 61(6) (2016) 323-326). LADD Multiple Stain is a solution containing toluidine blue (VWR) and basic fuchsin (Fluka) in 30% (v/v) ethanol. The stained myotubes were assessed under a phase-contrast microscope equipped with a camera (Olympus CKX53) at a total magnification of 100×. Five different images were taken per well. The amount of myotube formation was automatically quantified using ImageJ software.
# Mimicking the in vivo muscle physiology, C2C12 myoblasts are able to differentiate into myotubes when they are adjacent to each other and a differentiating extracellular medium is present. Muscle wasting diseases are characterized by a decreased myotube formation. To evaluate the effects of QSM on the differentiation capacities of C2C12 myoblasts, the C2C12 cells were treated in differentiation medium with QSM at d0 and d3, and evaluated the myotube formation at d6. At d6, the staining protocol of McColl et al. was used to visualize the myotubes (references see above). The differentiation capacity of all QSM was between 71% (Q013) and 145% (AI-2) relative to the median of all samples (FIG. 1).
# [3] = system: GDF15 production by C2C12 myotubes; assay: GDF15 production by C2C12 myotubes (sandwich ELISA), mitochondrial changes; format: cell-based, mouse; conditions: for GDF15 secretion, effect relative to median: QSM 1 μM, C2C12 myotubes; for Effect: GDF15 (hit direction): screening at 1 μM
# Protocol: GDF15 levels were determined in the supernatants of C2C12 cells after QSM, placebo or positive control (oligomyin) treatment, using a sandwich ELISA (R&D Systems). A similar protocol as described for the IL-6 determination was used.
# GDF15 is considered a useful biomarker for direct or indirect changes in mitochondrial function. Moreover, GDF15 is implicated in muscle wasting diseases like sarcopenia, chronic obstructive pulmonary disease cachexia and critical illness.
# [4] = system: C. elegans; assay: C. elegans swimming behaviour (muscle wasting/aging model); format: in vivo; parameters: key to Wave initiation rate / Asymmetry / Stretch / Curling / Travel speed / Brush stroke / Activity index: relative to placebo set to 1.0; conditions: DMSO positive control
# Excerpt: The C. elegans model is a well-established aging model: they diminish in locomotory vigor as they age, a phenomenon that is attributed to a physical deterioration of muscle and synapses. QSPs were introduced in the medium of living C. elegans. As comparisons, a placebo experiment was used as negative control, while DMSO was used as positive control.
# Using automatic, objective imaging software, different swimming behaviour variables associated with this decrease in locomotory vigor or muscle wasting were investigated. Wave initiation rate, travel speed, brush stroke and activity index do decrease with muscle wasting, while body wave number, asymmetry, curling and stretch do increase with muscle wasting, as described in Restif et al., Plos Computational Biology, 2014.
# More in particular, the results in these tables show Q184-associated changes in three swimming parameters in wild-type adults at day 3 (Table 9) and day 12 (Table 10) (n=120-170 from 3 independent trials for each condition). Data presented are means±s.e.m (placebo set to 1.0).
# [5] = system: IL-6 production by C2C12 myotubes; assay: IL-6 production by C2C12 myotubes (sandwich ELISA); format: cell-based, mouse; conditions: for Effect: inflammation (IL-6 production, hit direction): screening at 1 μM
# Protocol: C2C12 myoblasts (2.5×10^4 cells/well) were seeded in 96-well plates and incubated until they reached 80% confluency, after which the proliferation medium was removed and replaced by differentiation medium. After 6 days of incubation with daily renewed differentiation medium, the cells were treated with 1 μM of QSM, placebo or positive control (LPS) for 24 hours. IL-6 levels were determined in the supernatants using a sandwich ELISA (eBioscience), using IL-6 capture antibody, blocking solution, samples and standards, IL-6 detection antibody, avidin-horseradish peroxidase and substrate solution which were added sequentially, with washing steps in between. After stopping the reaction with H2SO4 solution, the absorbance was measured at 450 nm and 570 nm (correction wavelength) using a microplate reader (ThermoLab Systems). Concentrations were determined using the standard curves generated with known concentrations of IL-6.
# Several pro-inflammatory cytokines are elevated in sepsis, cancer, ageing and other catabolic diseases. They are thought to trigger muscle wasting (partly) through NF-kB pathways. […] In these screening experiments, the effects of QSM on myotube IL-6 production were assessed using a sandwich ELISA.
# In a further set of experiments, using similar methods as described for the screening experiments, a number of QSPs were tested for a dose response relation in C2C12 cells.
# [6] = system: C2C12 cells; assay: Co-treatment of C2C12 cells with QSP and ala-scan derivative, IL-6 response; format: cell-based, mouse; conditions: for effect on Q055 mediated IL-6 induction: Q055 75 μM plus derivative 90 μM
# Excerpt: Means±SEM, n=6. * P<0.05; ** P<0.01, *** P<0.001; paired Student's t test.
# [7] = system: human muscle cells; assay: IL-6 production dose response in human muscle cells; format: cell-based; conditions: FIG. 12
# Protocol: Differentiation medium consisted of high glucose Glutamax DMEM supplemented with penicillin (100 units/ml), streptomycin (100 μg/ml) and insulin (10 μg/mL).
# Using similar methods as described for the C2C12 experiments, a number of QSPs were tested for a dose response relation in human muscle cells.
# [8] = day 3, placebo set to 1.0, Q184 at 1 μM
# [9] = day 12, placebo set to 1.0, Q184 at 1 μM
molecule,measurement,setting,value
CCCC(O)CC(=O)N[C@H]1CCOC1=O (stereo partly shown) [3-OH-C6-HSL],Effect: viability (hit direction),[1],increasing hit; also recorded: ↑ viability
C[C@]12OC[C@H](O)[C@@]1(O)O[B-](O)(O)O2 [AI-2],differentiation capacity relative to the median of all samples,[2],145%
same,Effect: differentiation (hit direction),[2],increased myotube formation; also recorded: ↑ differentiation
same,Effect: viability (hit direction),[1],increasing both C2C12 viability and GDF15 production
same,"GDF15 secretion, effect relative to median",[3],216%
same,Effect: GDF15 (hit direction),[3],increased GDF15 production
CCCCCC(=O)N[C@H]1CCOC1=O [C6-HSL],Effect: GDF15 (hit direction),[3],increased GDF15 production
"C[S+](C)[O-] [DMSO, dimethylsulfoxide, reference compound]",Activity index,[4]; [8],0.60
same,Asymmetry,[4]; [8],3.11
same,Body wave number,[4]; [8],2.04
same,Brush stroke,[4]; [8],0.68
same,Curling,[4]; [8],1.55
same,Stretch,[4]; [8],1.10
same,Travel speed,[4]; [8],0.85
same,Wave initiation rate,[4]; [8],0.58
same,Activity index,[4]; [9],0.31
same,Asymmetry,[4]; [9],2.50
same,Body wave number,[4]; [9],2.59
same,Brush stroke,[4]; [9],0.48
same,Curling,[4]; [9],0.08
same,Stretch,[4]; [9],0.91
same,Travel speed,[4]; [9],0.49
same,Wave initiation rate,[4]; [9],0.39
AGTKPQGKPASNLVECVFSLFKKCN [Q011],Effect: viability (hit direction),[1],decreasing viability hits
same,Effect: GDF15 (hit direction),[3],increased GDF15 production
AIFILAS [Q013],differentiation capacity relative to the median of all samples,[2],71%
AKDEH [Q015],Effect: viability (hit direction),[1],decreasing viability hits
same,Effect: GDF15 (hit direction),[3],increased GDF15 production
ALILTLVS [Q017],Effect: viability (hit direction),[1],decreasing viability hits
ARNQT [Q018],Effect: viability (hit direction),[1],decreasing viability hits
DLRGVPNPWGWIFGR [Q030],Effect: viability (hit direction),[1],decreasing viability hits
DLRNIFLKIKFKKK [Q031],Effect: viability (hit direction),[1],decreasing viability hits
DSVCASYF [Q040],Effect: viability (hit direction),[1],decreasing viability hits
ERPVG [Q052],"Effect: inflammation (IL-6 production, hit direction)",[5],decreased the IL-6 production; also recorded: ↓ inflammation
same,Effect: viability (hit direction),[1],increasing hits; also recorded: increasing viability hit
ESRLPKIRFDFIFPRKK [Q054],relative IL-6 production,"[5]; QSM 1 μM, 24 h, relative to median of all QSM",51%
same,"Effect: inflammation (IL-6 production, hit direction)",[5],decreased the IL-6 production; also recorded: ↓ inflammation
ESRVSRIIADFLFQRKK (Synthetic QSP055-A9),effect on Q055 mediated IL-6 induction,[6],antagonistic effect
ESRVSRIILDFLFQRKK [Q055],Relative IL-6,[5]; concentration 0.20 μM,0.94
same,Relative IL-6,[5]; concentration 0.39 μM,1.07
same,Relative IL-6,[5]; concentration 1.56 μM,0.93
same,Relative IL-6,[5]; concentration 3.13 μM,1.24
same,Relative IL-6,[5]; concentration 6.25 μM,1.24
same,Relative IL-6,[5]; concentration 12.5 μM,3.60
same,Relative IL-6,[5]; concentration 25 μM,5.56
same,Relative IL-6,[5]; concentration 50 μM,8.94
same,Relative IL-6,[5]; concentration 100 μM,6.48
same,"Effect: inflammation (IL-6 production, hit direction)",[5],increased IL-6 production; also recorded: ↑ inflammation
same,"dose response relation, IL6 production",[7],Typical curves were obtained
FLVMFLSG [Q093],"GDF15 secretion, effect relative to median",[3],137%
same,Effect: GDF15 (hit direction),[3],increased GDF15 production
GKAEF [Q099],"GDF15 secretion, effect relative to median",[3],80%
same,Effect: GDF15 (hit direction),[3],decreased the GDF15 production
GLWEDILYSLNIIKHNNTKGLHHPIQL [Q101],Effect: viability (hit direction),[1],increasing hits; also recorded: ↑ viability
GSLSTFFALFNRSFTQALGK (Synthetic Q176-A9),effect on Q176 mediated IL-6 induction,[6]; Q176 50 μM plus derivative 60 μM,inhibiting the Q176 mediated IL-6 induction
LFSLVLAG [Q132],Effect: viability (hit direction),[1],decreasing viability hits
LPFEF [Q134],Effect: viability (hit direction),[1],decreasing viability hits
MAGNSSNFIHKIKQIFTHR [Q138],Effect: viability (hit direction),[1],increasing hits; also recorded: ↑ viability
MKAEH [Q140],Effect: viability (hit direction),[1],increasing hits; also recorded: ↑ viability
NNWNN [Q019],Effect: differentiation (hit direction),[2],increased myotube formation; also recorded: ↑ differentiation
QNSPNIFGQWM [Q097],Effect: viability (hit direction),[1],decreasing viability hits
SDLPFEH [Q164],Effect: viability (hit direction),[1],increasing hits; also recorded: ↑ viability
"SRNAT [Q192, SRNAT]",viability relative to the median of all samples (MTT),"[1]; QSM 1 μM, 24 h, C2C12 myoblasts, n=2",120%
same,Effect: viability (hit direction),[1],strong increasing hit; also recorded: ↑ viability
SRVSAIILDFLFQRKK (Synthetic Q055-A6),effect on Q055 mediated IL-6 induction,[6],inhibited the Q055 mediated IL-6 induction
YSPWTNF [Q007],"Effect: inflammation (IL-6 production, hit direction)",[5],increased IL-6 production; also recorded: ↑ inflammation
YSTCDFIM [Q148],"GDF15 secretion, effect relative to median",[3],80%
